According to PMC8528049, “Expanding the scope of native chemical ligation – templated small molecule drug synthesis via benzanilide formation” (Chemical Science, 2021):
Read-outs that look alike come from different tables or passages of the source.

Legend:
Bcr–Abl = details: cited from earlier work
[1] = biological target: non-phosphorylated Abl1 kinase (Homo sapiens, UniProt P00519); assay: KdELECT assay (DiscoverX), dissociation constants with Abl1 kinase
K562 cells = assay: alamarBlue cell viability assay on K562 cells; assay type: cell-based; details: Homo sapiens
Experimental: Cell culture and cell viability assay
K562 cells were cultured in DMEM supplemented with 10% FCS, 4 mM glutamine, 100 U · mL-1 […]
assays , c e l ls were seeded on a 96-well plate (10000 cells/well), followed by the immediate addition of the test compounds (100 µL, serial dilutions in medium). Untreated cells were used as controls and complete medium without cells was used to determine the background signal o f the assay . Afte r […]
1:10, v:v, in PBS) was added to each well. […]
reader from PerkinElmer (Waltham, USA). IC 50 values were calculated from triplicates w it h a 1 3 -po i n t dose-response curve using the Hill equation. […]

[2] = Dissociation constant (Kd) of complexes formed with Abl1 kinase, non-phosphorylated Abl1 kinase, calculated from quadruplicates, mean ± SD
[3] = Kd, Replicate 1, non-phosphorylated Abl1 kinase, single replicate 1, Hill equation
[4] = Kd, Replicate 2, non-phosphorylated Abl1 kinase, single replicate 2, Hill equation
[5] = Kd, Replicate 3, non-phosphorylated Abl1 kinase, single replicate 3, Hill equation
[6] = Kd, Replicate 4, non-phosphorylated Abl1 kinase, single replicate 4, Hill equation
[7] = 96 h, single replicate 1, read-out: IC50, Replicate 1
[8] = 96 h, single replicate 2, read-out: IC50, Replicate 2
[9] = 96 h, single replicate 3, read-out: IC50, Replicate 3
[10] = 96 h treatment, calculated from triplicates, read-out: IC50 on K562 cells, determined by alamarBlue assay

non-phosphorylated Abl1 kinase, sequence (P00519 whole entry): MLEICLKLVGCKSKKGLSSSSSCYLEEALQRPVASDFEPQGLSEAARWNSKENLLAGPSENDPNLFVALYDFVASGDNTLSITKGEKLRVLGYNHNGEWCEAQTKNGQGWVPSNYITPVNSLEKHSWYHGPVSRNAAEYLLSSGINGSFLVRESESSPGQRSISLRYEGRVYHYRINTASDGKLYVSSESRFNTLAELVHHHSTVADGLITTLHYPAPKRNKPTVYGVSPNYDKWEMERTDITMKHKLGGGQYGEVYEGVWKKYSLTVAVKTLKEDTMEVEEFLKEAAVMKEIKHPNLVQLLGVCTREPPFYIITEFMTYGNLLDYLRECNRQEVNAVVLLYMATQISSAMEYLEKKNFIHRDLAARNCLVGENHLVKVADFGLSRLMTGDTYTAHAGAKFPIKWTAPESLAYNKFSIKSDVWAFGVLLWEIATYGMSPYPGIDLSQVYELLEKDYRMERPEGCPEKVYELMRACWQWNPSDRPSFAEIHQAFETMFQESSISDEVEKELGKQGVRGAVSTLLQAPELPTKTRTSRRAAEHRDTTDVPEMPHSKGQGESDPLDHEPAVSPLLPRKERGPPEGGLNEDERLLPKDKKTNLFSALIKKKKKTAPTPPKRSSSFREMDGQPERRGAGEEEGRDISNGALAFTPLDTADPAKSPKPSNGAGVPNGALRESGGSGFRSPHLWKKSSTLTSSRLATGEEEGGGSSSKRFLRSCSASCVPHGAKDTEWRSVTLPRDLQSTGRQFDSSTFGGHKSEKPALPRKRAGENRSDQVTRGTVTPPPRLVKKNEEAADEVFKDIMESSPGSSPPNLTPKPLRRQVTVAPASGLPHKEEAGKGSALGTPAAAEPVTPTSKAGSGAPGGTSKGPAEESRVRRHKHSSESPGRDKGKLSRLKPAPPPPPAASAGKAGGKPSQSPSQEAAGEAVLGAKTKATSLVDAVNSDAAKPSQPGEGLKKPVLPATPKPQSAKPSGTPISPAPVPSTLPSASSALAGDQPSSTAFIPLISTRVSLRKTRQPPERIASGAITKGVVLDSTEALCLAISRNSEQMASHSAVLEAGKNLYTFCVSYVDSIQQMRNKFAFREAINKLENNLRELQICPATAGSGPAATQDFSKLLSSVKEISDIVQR

Row | Compound | Kd [1, 2] [nM] | Kd [1, 3] [nM] | Kd [1, 4] [nM] | Kd [1, 5] [nM] | Kd [1, 6] [nM] | IC50 (K562 cells; [7]) [nM] | IC50 (K562 cells; [8]) [nM] | IC50 (K562 cells; [9]) [nM] | IC50 (K562 cells; [10]) [nM] | IC50 for inhibition of kinases such as Bcr–Abl (Bcr–Abl)
1 | Cc1ccc(C(=O)Nc2ccc(CN3CCN(C)CC3)c(C(F)(F)F)c2)cc1C#Cc1cnc2[nH]ncc2c1 [GZD824 (3), GZD824, reference compound] | 0.6 ± 0.3 | 1 | 0.7 | 0.3 | 0.4 |  |  |  |  | low nanomolar range
2 | Cc1cn(-c2cc(NC(=O)c3ccc(C)c(Nc4nccc(-c5cccnc5)n4)c3)cc(C(F)(F)F)c2)cn1 [Nilotinib (1), Nilotinib] |  |  |  |  |  |  |  |  |  | low nanomolar range
3 | Cc1cn(-c2cc(C(F)(F)F)cc(NC(=O)c3ccc(C)c(Nc4nccc(-c5cccnc5)n4)c3)c2S)cn1 [Nilotinib-SH (1a)] | 881 ± 151 | 1140 | 793 | 791 | 797 |  |  |  |  | 
4 | Cc1ccc(-c2nc3cc(C(F)(F)F)c(CN4CCN(C)CC4)cc3s2)cc1C#Cc1cnc2cccnn12 [Ponatinib-BT (2b)] | 8.4 ± 2.3 | 11.6 | 9.5 | 6.4 | 6.2 | 118 | 115 | 126 | 120 ± 5 | 

More lines, main results first:

Row | Kd [1, 2] [nM] | Kd [1, 3] [nM] | Kd [1, 4] [nM] | Kd [1, 5] [nM] | Kd [1, 6] [nM] | IC50 (K562 cells; [7]) [nM] | IC50 (K562 cells; [8]) [nM] | IC50 (K562 cells; [9]) [nM] | IC50 (K562 cells; [10]) [nM] | Compound | IC50 for inhibition of kinases such as Bcr–Abl (Bcr–Abl)
5 | 0.9 ± 0.4 | 1.2 | 1.4 | 0.5 | 0.5 |  |  |  |  | Cc1ccc(C(=O)Nc2cc(C(F)(F)F)c(CN3CCN(C)CC3)cc2S)cc1C#Cc1cnc2[nH]ncc2c1 [GZD824-SH (3a)] | 
6 |  |  |  |  |  | 3.5 | 3.6 | 3.1 | 3.4 ± 0.2 | Cc1ccc(C(=O)Nc2ccc(CN3CCN(C)CC3)c(C(F)(F)F)c2)cc1C#Cc1cnc2cccnn12 [Ponatinib (2), Ponatinib, reference compound] | 
7 | 0.6 | 0.5 | 0.7 | 0.6 | 0.6 | 392 | 343 | 326 | 354 ± 28 | Cc1ccc(C(=O)Nc2cc(C(F)(F)F)c(CN3CCN(C)CC3)cc2S)cc1C#Cc1cnc2cccnn12 [Ponatinib-SH (2a)] | 
